We go through 7 compounds from PubChem BioAssay (NCI).

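Each compound was tested at five concentrations against cells in 96-well plates for 48 hours. GI50 marks 50% less growth. Definition used: TGI = concentration required for complete inhibition of growth.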 Some results are limits rather than exact numbers.

Among the test systems are NCI-H522 lung; MDA-MB-231 breast; NCI/ADR-RES ovarian; SF-539 CNS; DU-145 prostate; SNB-75 CNS; A549 NSCLC; ACHN renal; TK-10 renal; KM12 colon.
Assay in all cases: DTP human tumour cell line panel, 48 h

In general, GI50 refers to the concentration at which growth is held to half of that of the control. In general, TGI refers to the concentration giving total growth inhibition. With `CO/N=C(\C)c1ccc(Nc2cc(-c3ccccc3)nc3ccc(OC)cc23)cc1`, the GI50 with NCI-H522 lung was 4.4 µM; in the test with MDA-MB-231 breast, 1.23 µM; in the test with NCI/ADR-RES ovarian, 2.61 µM; with SF-539 CNS, 2.72 µM; in the test with DU-145 prostate, 5.36 µM; in the test on SNB-75 CNS, 23 µM. Further, the GI50 is 4.28 µM in the test on A549 NSCLC, 3.27 µM with ACHN renal and 2.52 µM with TK-10 renal. Moreover, the total growth inhibition concentration (TGI) with NCI-H522 lung is over 100 µM; in the test with MDA-MB-231 breast, 3.24 µM; in the test with NCI/ADR-RES ovarian it was 11.2 µM; in the test with SF-539 CNS it was 4.74 µM; in the test on DU-145 prostate, 21.3 µM; in the test on SNB-75 CNS, over 100 µM. The values for the total growth inhibition concentration (TGI) in the test on A549 NSCLC, in the test on ACHN renal and in the test with TK-10 renal were 70.2 µM, 12.5 µM and 6.85 µM, respectively.

`C[C@@]12CCC[C@@](C)(C(=O)O)C1CC[C@]13C[C@@](O)(CO)[C@](O)(CCC12)C3` (stereo partly drawn): the GI50 with NCI-H522 lung, in the test with MDA-MB-231 breast, in the test on NCI/ADR-RES ovarian, in the test with SF-539 CNS, with DU-145 prostate and in the test with KM12 colon was over 100 µM in each case. In addition, the GI50 in the test on SNB-75 CNS, with A549 NSCLC, in the test with ACHN renal and with TK-10 renal was over 100 µM throughout. The concentration for total growth inhibition (TGI) with NCI-H522 lung, with MDA-MB-231 breast, in the test on NCI/ADR-RES ovarian, in the test on SF-539 CNS, with DU-145 prostate and with KM12 colon was over 100 µM in each case. Besides, the concentration for total growth inhibition (TGI) in the test on SNB-75 CNS, in the test with A549 NSCLC, in the test on ACHN renal and in the test with TK-10 renal was over 100 µM each time.

With `C=C1CCC2C3(C)COC(c4ccccc4)OC3CCC2(C)C1/C=C/C1=CCOC1=O` (stereo not drawn), the GI50 with NCI-H522 lung is 3.65 µM; with MDA-MB-231 breast it was 12.5 µM; in the test on NCI/ADR-RES ovarian it was 3.17 µM; in the test on SF-539 CNS, 8.71 µM; in the test with DU-145 prostate, 3.77 µM; in the test with KM12 colon it was 2.91 µM. The GI50 in the test with SNB-75 CNS was 2.64 µM; with A549 NSCLC it was 6.87 µM; with ACHN renal, 8.74 µM; with TK-10 renal, 12.3 µM. Moreover, the total growth inhibition concentration (TGI) in the test with NCI-H522 lung is 14.9 µM; with MDA-MB-231 breast, 43 µM; in the test with NCI/ADR-RES ovarian, over 100 µM; with SF-539 CNS it was 21.2 µM; in the test with DU-145 prostate, 12.8 µM; in the test with KM12 colon, 11.4 µM. The TGI in the test on SNB-75 CNS turned out to be 10.1 µM; with A549 NSCLC it was 48.1 µM; in the test with ACHN renal it was 22 µM; with TK-10 renal, 34 µM.

Regarding `C=CC(=O)Nc1cc(C)ccc1Nc1nc(Nc2cc(OC)ncc2C)ncc1C(F)(F)F`, the GI50 with NCI-H522 lung is 1.14 µM; with MDA-MB-231 breast, 0.336 µM; in the test on NCI/ADR-RES ovarian, 1.69 µM; in the test on SF-539 CNS it was 0.344 µM; in the test on DU-145 prostate, 0.996 µM; in the test with KM12 colon it was 1.13 µM. Also, the GI50 in the test with SNB-75 CNS was 0.285 µM; in the test with A549 NSCLC, 1.02 µM; in the test on ACHN renal, 0.397 µM; with TK-10 renal, 0.416 µM. The TGI in the test on NCI-H522 lung was over 31.6 µM; with MDA-MB-231 breast, 1.87 µM; in the test on NCI/ADR-RES ovarian it was over 26.5 µM; in the test on SF-539 CNS it was 1.63 µM; in the test with DU-145 prostate, 12.3 µM; in the test with KM12 colon, over 58.1 µM. In addition, the TGI in the test with SNB-75 CNS is 1.45 µM; in the test on A549 NSCLC, 4.59 µM; in the test with ACHN renal, 2.07 µM; with TK-10 renal, over 100 µM.

Regarding `C/C(=N\NS(=O)(=O)c1ccc(C)cc1)P(=O)(O)O`, the TGI with NCI-H522 lung, in the test with MDA-MB-231 breast, with NCI/ADR-RES ovarian, in the test on SF-539 CNS, in the test with DU-145 prostate and in the test on KM12 colon was over 100 µM throughout. The total growth inhibition concentration (TGI) in the test on SNB-75 CNS, in the test with A549 NSCLC, in the test with ACHN renal and with TK-10 renal was over 100 µM throughout.

For `CC(=O)c1c(C)[nH]c(-c2nc3ccc(N4CCN(C)CC4)cc3[nH]2)c1-c1ccc(N(C)C)cc1`, the GI50 is 0.606 µM with NCI-H522 lung; 0.645 µM with MDA-MB-231 breast; 0.916 µM in the test with NCI/ADR-RES ovarian; 1.15 µM with SF-539 CNS; 5.37 µM with DU-145 prostate; 1.34 µM in the test on KM12 colon. In addition, the GI50 with SNB-75 CNS is 0.0456 µM; in the test with A549 NSCLC, 1.04 µM; in the test on ACHN renal it was 0.773 µM; with TK-10 renal, 0.294 µM. Besides, the concentration for total growth inhibition (TGI) was 16.6 µM in the test on NCI-H522 lung; 16.9 µM in the test with MDA-MB-231 breast; over 100 µM in the test on NCI/ADR-RES ovarian; 17.7 µM in the test on SF-539 CNS; over 83.6 µM in the test with DU-145 prostate; 20.2 µM in the test on KM12 colon. The TGI with SNB-75 CNS was 1.74 µM; in the test on A549 NSCLC it was over 48.4 µM; in the test on ACHN renal, 12.6 µM; with TK-10 renal it was 15.8 µM.

`O=Nc1ccc(NO)c2ccccc12`: the GI50 is 13.2 µM in the test with NCI-H522 lung; 10.3 µM in the test on MDA-MB-231 breast; 2.92 µM in the test with NCI/ADR-RES ovarian; 17.1 µM in the test with SF-539 CNS; 17.4 µM in the test with DU-145 prostate; 15.6 µM with KM12 colon. Also, the GI50 is 18.3 µM in the test on SNB-75 CNS, 18.3 µM in the test on A549 NSCLC, 12.6 µM in the test with ACHN renal and 27.6 µM in the test with TK-10 renal. The total growth inhibition concentration (TGI) stood at 27 µM in the test on NCI-H522 lung; 47.5 µM in the test with MDA-MB-231 breast; 15.8 µM with NCI/ADR-RES ovarian; 31.1 µM with SF-539 CNS; 31.5 µM with DU-145 prostate; 30.4 µM in the test on KM12 colon. Besides, the TGI in the test on SNB-75 CNS worked out at 32.4 µM; in the test with A549 NSCLC, 38.7 µM; in the test with ACHN renal, 25.9 µM; with TK-10 renal, 42.5 µM.
